Test results from PubChem BioAssay (NCI).
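Each compound was tested at five concentrations against cells in 96-well plates for 48 hours. TGI denotes the concentration required for complete inhibition of growth.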

How the values were obtained:
Experiment in all cases: inhibition of tumour cell growth, NCI panel, 48 h
NCI-H522 lung = tested on: NCI-H522 lung
TK-10 renal = tested on: TK-10 renal
COLO 205 colon = tested on: COLO 205 colon
HCC-2998 colon = tested on: HCC-2998 colon
CCRF-CEM leukemia = tested on: CCRF-CEM leukemia
SK-MEL-5 melanoma = tested on: SK-MEL-5 melanoma
OVCAR-5 ovarian = tested on: OVCAR-5 ovarian
RPMI-8226 leukemia = tested on: RPMI-8226 leukemia
NCI-H23 lung = tested on: NCI-H23 lung
OVCAR-8 ovarian = tested on: OVCAR-8 ovarian
HOP-62 NSCLC = tested on: HOP-62 NSCLC
SF-539 CNS = tested on: SF-539 CNS
MALME-3M melanoma = tested on: MALME-3M melanoma
SNB-75 CNS = tested on: SNB-75 CNS
A498 renal = tested on: A498 renal

Q: `C=CCCCN1CCCCC1=S` was tested. Which TGI (NCI-H522 lung) did it give?
A: > 100 µM

Q: And the TGI (TK-10 renal)?
A: > 100 µM

Q: And the TGI (COLO 205 colon)?
A: > 100 µM

Q: What about the TGI (HCC-2998 colon) of the same compound?
A: > 100 µM

Q: What about the TGI (CCRF-CEM leukemia) of the same compound?
A: > 100 µM

Q: What about the TGI (SK-MEL-5 melanoma) of the same compound?
A: > 100 µM

Q: What about the TGI (OVCAR-5 ovarian) of the same compound?
A: > 100 µM

Q: And the TGI (RPMI-8226 leukemia)?
A: > 100 µM

Q: What about the TGI (NCI-H23 lung) of the same compound?
A: > 100 µM

Q: What about the TGI (OVCAR-8 ovarian) of the same compound?
A: > 100 µM

Q: What about the TGI (HOP-62 NSCLC) of the same compound?
A: > 100 µM

Q: And the TGI (SF-539 CNS)?
A: > 100 µM

Q: And the TGI (MALME-3M melanoma)?
A: > 100 µM

Q: And the TGI (SNB-75 CNS)?
A: > 100 µM

Q: Which results are given for `CC(C)(C)OC(=O)N1CC(C)(C)N2C(=O)C3(CCCO3)C12` (stereo not drawn)?
A: TGI (NCI-H522 lung): > 100 µM; TGI (TK-10 renal): > 100 µM; TGI (COLO 205 colon): > 100 µM; TGI (HCC-2998 colon): > 100 µM; TGI (CCRF-CEM leukemia): > 100 µM; TGI (SK-MEL-5 melanoma): > 100 µM; TGI (OVCAR-5 ovarian): > 100 µM; TGI (RPMI-8226 leukemia): 53.1 µM; TGI (NCI-H23 lung): > 100 µM; TGI (A498 renal): > 100 µM; TGI (OVCAR-8 ovarian): > 100 µM; TGI (HOP-62 NSCLC): > 100 µM; TGI (SF-539 CNS): > 100 µM; TGI (MALME-3M melanoma): > 100 µM; TGI (SNB-75 CNS): > 100 µM

Q: Which TGI (NCI-H522 lung) does the source give for `CC1SC2=NC3=C(c4ccccc4C3=O)C(c3ccccc3Cl)N2C1=O` (stereo not drawn) here?
A: 96.3 µM

Q: And the TGI (TK-10 renal)?
A: > 100 µM

Q: What about the TGI (COLO 205 colon) of the same compound?
A: > 100 µM

Q: And the TGI (HCC-2998 colon)?
A: > 100 µM

Q: And the TGI (CCRF-CEM leukemia)?
A: > 100 µM

Q: And the TGI (SK-MEL-5 melanoma)?
A: > 100 µM

Q: What about the TGI (OVCAR-5 ovarian) of the same compound?
A: > 100 µM

Q: And the TGI (RPMI-8226 leukemia)?
A: > 100 µM

Q: What about the TGI (NCI-H23 lung) of the same compound?
A: > 100 µM

Q: What about the TGI (A498 renal) of the same compound?
A: > 100 µM

Q: And the TGI (OVCAR-8 ovarian)?
A: > 100 µM

Q: And the TGI (HOP-62 NSCLC)?
A: > 100 µM

Q: What about the TGI (SF-539 CNS) of the same compound?
A: > 100 µM

Q: And the TGI (MALME-3M melanoma)?
A: > 100 µM

Q: And the TGI (SNB-75 CNS)?
A: > 100 µM

Q: For `N#Cc1ccc(OCCSCCCCCCCCCCSCCOc2ccc(C#N)cc2)cc1`, which TGI (NCI-H522 lung) is on record?
A: > 100 µM

Q: And the TGI (TK-10 renal)?
A: > 100 µM

Q: And the TGI (COLO 205 colon)?
A: > 100 µM

Q: And the TGI (HCC-2998 colon)?
A: > 100 µM

Q: What about the TGI (CCRF-CEM leukemia) of the same compound?
A: > 100 µM

Q: What about the TGI (SK-MEL-5 melanoma) of the same compound?
A: > 100 µM

Q: And the TGI (OVCAR-5 ovarian)?
A: > 100 µM

Q: And the TGI (RPMI-8226 leukemia)?
A: > 100 µM

Q: What about the TGI (NCI-H23 lung) of the same compound?
A: > 100 µM

Q: And the TGI (A498 renal)?
A: > 100 µM

Q: And the TGI (OVCAR-8 ovarian)?
A: > 100 µM

Q: And the TGI (HOP-62 NSCLC)?
A: > 100 µM

Q: And the TGI (SF-539 CNS)?
A: > 100 µM

Q: What about the TGI (MALME-3M melanoma) of the same compound?
A: > 100 µM

Q: And the TGI (SNB-75 CNS)?
A: > 100 µM

Q: Which results are given for `Nc1ccn(CCOC(c2ccccc2)P(=O)(O)O)c(=O)n1` (stereo not drawn)?
A: TGI (NCI-H522 lung): > 100 µM; TGI (TK-10 renal): > 100 µM; TGI (COLO 205 colon): > 100 µM; TGI (HCC-2998 colon): > 100 µM; TGI (CCRF-CEM leukemia): > 100 µM; TGI (SK-MEL-5 melanoma): > 100 µM; TGI (OVCAR-5 ovarian): > 100 µM; TGI (NCI-H23 lung): > 100 µM; TGI (A498 renal): > 100 µM; TGI (OVCAR-8 ovarian): > 100 µM; TGI (SF-539 CNS): > 100 µM; TGI (MALME-3M melanoma): > 100 µM; TGI (SNB-75 CNS): > 100 µM

Q: `C#CC(C)(C)OCCCCOc1cc(O)c2c(=O)c3ccccc3n(C)c2c1` was tested. Which TGI (NCI-H522 lung) did it give?
A: > 100 µM

Q: And the TGI (TK-10 renal)?
A: > 100 µM

Q: And the TGI (COLO 205 colon)?
A: 80.4 µM

Q: And the TGI (HCC-2998 colon)?
A: > 100 µM

Q: What about the TGI (CCRF-CEM leukemia) of the same compound?
A: > 100 µM

Q: What about the TGI (SK-MEL-5 melanoma) of the same compound?
A: > 100 µM

Q: What about the TGI (OVCAR-5 ovarian) of the same compound?
A: > 100 µM

Q: And the TGI (RPMI-8226 leukemia)?
A: > 100 µM

Q: What about the TGI (NCI-H23 lung) of the same compound?
A: > 100 µM

Q: What about the TGI (A498 renal) of the same compound?
A: > 100 µM

Q: And the TGI (OVCAR-8 ovarian)?
A: > 100 µM

Q: What about the TGI (HOP-62 NSCLC) of the same compound?
A: > 100 µM

Q: What about the TGI (SF-539 CNS) of the same compound?
A: > 100 µM

Q: What about the TGI (MALME-3M melanoma) of the same compound?
A: > 100 µM

Q: What about the TGI (SNB-75 CNS) of the same compound?
A: > 100 µM

Q: Which results are given for `Cc1cc2c(=O)c(C)n[nH]c2c(C#N)c1C`?
A: TGI (TK-10 renal): > 100 µM; TGI (COLO 205 colon): > 100 µM; TGI (HCC-2998 colon): > 100 µM; TGI (CCRF-CEM leukemia): > 100 µM; TGI (OVCAR-5 ovarian): > 100 µM; TGI (RPMI-8226 leukemia): > 100 µM; TGI (NCI-H23 lung): > 100 µM; TGI (OVCAR-8 ovarian): > 100 µM; TGI (HOP-62 NSCLC): > 100 µM; TGI (SF-539 CNS): > 100 µM; TGI (MALME-3M melanoma): > 100 µM; TGI (SNB-75 CNS): > 100 µM

Q: With `COC(=O)/C(=N\NC(N)=O)C(C#N)c1ccccc1` (stereo not drawn) as the compound, how does the TGI (NCI-H522 lung) read?
A: > 100 µM

Q: What about the TGI (TK-10 renal) of the same compound?
A: > 100 µM

Q: And the TGI (COLO 205 colon)?
A: > 100 µM

Q: What about the TGI (HCC-2998 colon) of the same compound?
A: > 100 µM

Q: What about the TGI (CCRF-CEM leukemia) of the same compound?
A: > 100 µM

Q: And the TGI (OVCAR-5 ovarian)?
A: > 100 µM

Q: What about the TGI (RPMI-8226 leukemia) of the same compound?
A: > 100 µM

Q: What about the TGI (NCI-H23 lung) of the same compound?
A: > 100 µM

Q: And the TGI (A498 renal)?
A: > 100 µM

Q: What about the TGI (OVCAR-8 ovarian) of the same compound?
A: > 100 µM

Q: And the TGI (HOP-62 NSCLC)?
A: > 100 µM

Q: And the TGI (SF-539 CNS)?
A: > 100 µM

Q: What about the TGI (MALME-3M melanoma) of the same compound?
A: > 100 µM

Q: What about the TGI (SNB-75 CNS) of the same compound?
A: > 100 µM
